Experimental data as given in patent US20150018301A1, “LRRK-2-Mediated Neuronal Toxicity” (THE JOHNS HOPKINS UNIVERSITY, priority 2009, published 2015).

What was measured:
LRRK2 WT [1] = target: T1, LRRK2 WT (Homo sapiens, UniProt Q5S007); test: In vitro kinase assay: LRRK2 autophosphorylation; type: biochemical; details: compound 16 μM; phosphorylation normalized to absence of compound; mean ± S.E.M. of three experiments
LRRK2 WT [2] = target: T1, LRRK2 WT; test: In vitro kinase assay: LRRK2-mediated MBP phosphorylation; type: biochemical; details: compound 16 μM; 30° C., 15 min; normalized to absence of compound; mean ± S.E.M. of three experiments

T1 sequence (Q5S007 whole entry): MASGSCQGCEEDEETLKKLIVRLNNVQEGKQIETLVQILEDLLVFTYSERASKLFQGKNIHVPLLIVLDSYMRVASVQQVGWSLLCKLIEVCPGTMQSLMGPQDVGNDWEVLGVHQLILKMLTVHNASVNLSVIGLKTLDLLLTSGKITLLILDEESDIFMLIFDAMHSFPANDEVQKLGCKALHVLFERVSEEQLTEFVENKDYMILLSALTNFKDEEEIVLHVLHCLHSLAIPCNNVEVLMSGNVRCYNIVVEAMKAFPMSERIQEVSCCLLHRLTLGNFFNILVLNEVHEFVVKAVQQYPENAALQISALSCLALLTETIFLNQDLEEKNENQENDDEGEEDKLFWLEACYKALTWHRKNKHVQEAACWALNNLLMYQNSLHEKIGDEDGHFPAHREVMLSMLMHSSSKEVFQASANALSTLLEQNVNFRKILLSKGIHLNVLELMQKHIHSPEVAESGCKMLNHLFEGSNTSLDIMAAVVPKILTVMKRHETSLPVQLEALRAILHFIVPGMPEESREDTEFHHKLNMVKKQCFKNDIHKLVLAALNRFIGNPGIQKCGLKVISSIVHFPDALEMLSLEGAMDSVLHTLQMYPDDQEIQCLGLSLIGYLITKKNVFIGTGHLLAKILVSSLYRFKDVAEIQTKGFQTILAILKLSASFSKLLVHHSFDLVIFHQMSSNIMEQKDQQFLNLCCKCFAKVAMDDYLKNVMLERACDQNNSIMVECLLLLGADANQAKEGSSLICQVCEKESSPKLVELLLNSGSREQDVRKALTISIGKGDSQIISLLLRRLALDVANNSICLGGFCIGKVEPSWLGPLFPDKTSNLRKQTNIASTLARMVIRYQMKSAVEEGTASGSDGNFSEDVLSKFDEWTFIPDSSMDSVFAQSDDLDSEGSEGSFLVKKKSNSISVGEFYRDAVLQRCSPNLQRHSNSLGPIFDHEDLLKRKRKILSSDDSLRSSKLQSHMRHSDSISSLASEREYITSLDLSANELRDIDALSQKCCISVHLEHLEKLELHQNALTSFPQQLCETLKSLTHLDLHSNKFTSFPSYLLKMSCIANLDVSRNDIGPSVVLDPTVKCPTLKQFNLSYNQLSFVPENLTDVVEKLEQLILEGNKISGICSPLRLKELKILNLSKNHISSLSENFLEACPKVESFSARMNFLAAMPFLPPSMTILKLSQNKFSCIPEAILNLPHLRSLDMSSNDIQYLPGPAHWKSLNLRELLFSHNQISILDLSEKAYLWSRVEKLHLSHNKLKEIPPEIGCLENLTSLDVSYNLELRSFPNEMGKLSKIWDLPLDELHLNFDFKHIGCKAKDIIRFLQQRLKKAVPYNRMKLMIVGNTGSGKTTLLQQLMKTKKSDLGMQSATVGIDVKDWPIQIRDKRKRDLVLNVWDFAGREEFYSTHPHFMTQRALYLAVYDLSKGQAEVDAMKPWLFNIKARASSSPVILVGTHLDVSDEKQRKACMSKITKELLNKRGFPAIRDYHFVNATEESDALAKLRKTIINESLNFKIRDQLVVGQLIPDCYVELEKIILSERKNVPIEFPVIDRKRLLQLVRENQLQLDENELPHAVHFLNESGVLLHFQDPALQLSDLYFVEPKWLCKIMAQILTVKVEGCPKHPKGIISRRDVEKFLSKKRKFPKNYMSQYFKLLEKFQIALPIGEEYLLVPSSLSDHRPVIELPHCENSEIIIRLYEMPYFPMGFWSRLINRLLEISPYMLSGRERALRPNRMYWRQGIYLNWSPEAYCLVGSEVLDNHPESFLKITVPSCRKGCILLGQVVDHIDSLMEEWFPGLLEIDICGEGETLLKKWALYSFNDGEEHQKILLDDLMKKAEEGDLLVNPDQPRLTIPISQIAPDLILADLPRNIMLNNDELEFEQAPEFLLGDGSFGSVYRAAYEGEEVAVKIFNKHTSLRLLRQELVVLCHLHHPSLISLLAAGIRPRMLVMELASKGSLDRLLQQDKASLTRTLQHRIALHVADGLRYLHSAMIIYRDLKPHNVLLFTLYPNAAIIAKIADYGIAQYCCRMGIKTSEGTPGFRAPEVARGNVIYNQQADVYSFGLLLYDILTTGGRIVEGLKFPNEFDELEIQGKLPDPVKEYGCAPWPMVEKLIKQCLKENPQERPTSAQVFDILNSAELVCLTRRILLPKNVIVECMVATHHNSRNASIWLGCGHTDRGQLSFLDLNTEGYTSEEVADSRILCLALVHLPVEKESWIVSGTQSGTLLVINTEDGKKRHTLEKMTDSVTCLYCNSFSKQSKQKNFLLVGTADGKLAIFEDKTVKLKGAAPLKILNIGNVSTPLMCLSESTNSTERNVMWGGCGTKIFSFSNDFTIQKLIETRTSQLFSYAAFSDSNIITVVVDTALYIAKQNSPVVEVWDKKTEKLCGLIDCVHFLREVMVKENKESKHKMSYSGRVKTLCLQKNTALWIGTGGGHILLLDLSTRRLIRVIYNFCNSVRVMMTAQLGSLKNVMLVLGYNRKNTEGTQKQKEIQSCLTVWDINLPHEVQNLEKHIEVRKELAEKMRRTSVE

LRRK2 autophosphorylation Average ± SEM (LRRK2 WT [1]) | MBP phosphorylation Average ± SEM (LRRK2 WT [2]) | SMILES
79.3 ± 3.6 % of control | 75.5 ± 3.1 % of control | O=c1cc(N2CCOCC2)oc2c(-c3ccccc3)cccc12 [Inhibitor 29]
75.1 ± 12.8 % of control | 124.8 ± 23.5 % of control | Cc1ccc(S(=O)(=O)/C=C/C#N)cc1 [Inhibitor 65]
82.0 ± 4.2 % of control | 110.3 ± 28.4 % of control | O=C1Nc2ccccc2/C1=C1\Nc2ccccc2C1=O [Inhibitor 69]
72.5 ± 2.1 % of control | 125.3 ± 45.6 % of control | Cn1cnc2c(NCc3ccccc3)nc(NCCO)nc21 [Inhibitor 46]
62.8 ± 15.8 % of control | 65.9 ± 31.4 % of control | N#CC(C#N)=Cc1cc(O)c(O)c(O)c1 [Inhibitor 12]
104.6 ± 26.6 % of control | 164.7 ± 40.0 % of control | COc1ccc(S(=O)(=O)N(CCO)c2ccccc2CN(C)C/C=C/c2ccc(Cl)cc2)cc1 [Inhibitor 41]
79 ± 49.6 % of control | 105.1 ± 19.1 % of control | N#CC(C#N)=C(N)/C(C#N)=C/c1cc(O)c(O)c(O)c1 [Inhibitor 15]
84.3 ± 21.1 % of control | 65.2 ± 35.5 % of control | O=C(O)c1cc(N(Cc2ccccc2O)Cc2cc(O)ccc2O)ccc1O [Inhibitor 9]
87 ± 38.6 % of control | 93.0 ± 17.8 % of control | Oc1cc(O)cc(/C=C/c2ccc(O)c(O)c2)c1 [Inhibitor 23]
78.5 ± 5.8 % of control | 82.9 ± 17.7 % of control | N#C/C(=C\c1ccc(O)c(O)c1)C(=O)NCc1ccccc1 [Inhibitor 25]
73.2 ± 8.8 % of control | 79.5 ± 17.8 % of control | N#CC(C#N)=C(N)/C(C#N)=C/c1ccc2[nH]ccc2c1 [Inhibitor 27]
80.9 ± 3.0 % of control | 50.2 ± 29.4 % of control | CNCCNS(=O)(=O)c1cccc2cnccc12 [Inhibitor 36]
81.7 ± 27.1 % of control | 81.5 ± 17.6 % of control | COc1cc(/C=C(\C#N)C(N)=O)cc(CSc2nc3ccccc3s2)c1O [Inhibitor 8]
74.6 ± 1.7 % of control | 133.2 ± 17.6 % of control | Cl.c1ccc([C@H]2CN3CCSC3=N2)cc1 [Inhibitor 78]
69.8 ± 12.0 % of control | 76.7 ± 4.5 % of control | CC(C)(C)c1cc(/C=C(\C#N)C(N)=S)cc(C(C)(C)C)c1O [Inhibitor 28]
73.0 ± 5.3 % of control | 93.9 ± 11.5 % of control | COC(=O)/C=C/c1cc(O)ccc1O [Inhibitor 61]
69.4 ± 37.9 % of control | 63.1 ± 66.7 % of control | O=c1c(-c2ccc(O)cc2)coc2cc(O)cc(O)c12 [Inhibitor 59]
77.9 ± 30.6 % of control | 77.5 ± 55.0 % of control | COc1cccc(-c2cc(=O)c3ccccc3o2)c1N [Inhibitor 1]
37.5 ± 13.9 % of control | 112.8 ± 34.9 % of control | CN(C)c1ccc(/C=C2\C(=O)Nc3ccccc32)cc1 [Inhibitor 54]
87.3 ± 14.8 % of control | 89.4 ± 71.9 % of control | Cl.O=S(=O)(c1cccc2c(I)cccc12)N1CCCNCC1 [Inhibitor 42]
95.3 ± 5.9 % of control | 77.2 ± 86.4 % of control | Nc1ncc2[nH]cnc2n1 [Inhibitor 44, 2-aminopurine]
79.2 ± 24.2 % of control | 123.2 ± 33.8 % of control | COCc1cc(O)c(O)c(O)c1-c1c(COC)cc(O)c(O)c1O [Inhibitor 67]
39.2 ± 39.9 % of control | 70.1 ± 40.5 % of control | O=c1c(O)c(-c2ccc(O)c(O)c2)oc2cc(O)cc(O)c12 [Inhibitor 62, Quercetin dihydrate]
103.0 ± 4.4 % of control | 148.9 ± 71.4 % of control | O=C(O)c1cc(NCc2cc(O)ccc2O)ccc1O [Inhibitor 39, 2-hydroxy-5-(2,5-dihydroxybenzyl-amino) benzoic acid]

SMILES | LRRK2 autophosphorylation Average ± SEM (LRRK2 WT [1]) | MBP phosphorylation Average ± SEM (LRRK2 WT [2])
CC(C)(C)c1cc(C=C(C#N)C#N)cc(C(C)(C)C)c1O [Inhibitor 20] | 109.0 ± 19.7 % of control | 120.7 ± 29.4 % of control
CC(C)(C)n1nc(-c2ccc(Cl)cc2)c2c(N)ncnc21 [Inhibitor 52] | 45.7 ± 22.1 % of control | 98.1 ± 44.2 % of control
CC[C@@H](CO)Nc1nc(NCc2ccccc2)c2ncn(C(C)C)c2n1 [Inhibitor 48] | 69.4 ± 30.1 % of control | 100.1 ± 41.5 % of control
CC1(C)[C@H](C=C(Br)Br)[C@@H]1C(=O)O[C@H](C#N)c1cccc(Oc2ccccc2)c1 [Inhibitor 81] | 73.9 ± 2.2 % of control | 99.6 ± 23.1 % of control
C#COC1C(C(=O)O)[C@H]2CC[C@@H]1O2 (some centres unmarked) [Inhibitor 73] | 78.8 ± 5.1 % of control | 128.9 ± 9.4 % of control
N#C/C(=C\c1ccc(O)c(O)c1)C(N)=S [Inhibitor 14] | 80.5 ± 32.2 % of control | 110.5 ± 29.3 % of control
C[S+]([O-])c1ccc(-c2nc(-c3ccc(F)cc3)c(-c3ccncc3)[nH]2)cc1 (centres unmarked) [Inhibitor 3] | 75.1 ± 7.8 % of control | 105.9 ± 15.9 % of control
Oc1ccc(-c2nc(-c3ccc(F)cc3)c(-c3ccncc3)[nH]2)cc1 [Inhibitor 51] | 64.9 ± 20.9 % of control | 125.5 ± 52.6 % of control
COC[C@H]1OC(=O)c2coc3c2[C@@]1(C)C1=C(C3=O)[C@@H]2CCC(=O)[C@@]2(C)C[C@H]1OC(C)=O [Inhibitor 30] | 83.0 ± 23.6 % of control | 66.8 ± 29.1 % of control
COc1cc2ncnc(Nc3cccc(Cl)c3)c2cc1OC [Inhibitor 18] | 63.7 ± 28.0 % of control | 110.0 ± 44.0 % of control
Cc1ccc(NC(=O)c2cccc(N(C)C)c2)cc1NC(=O)c1ccc(O)cc1 [Inhibitor 53] | 89.2 ± 2.7 % of control | 152.6 ± 38.0 % of control
O=P(O)(O)Cc1ccccc1 [Inhibitor 74] | 68.3 ± 1.85 % of control | 121.8 ± 23.6 % of control
CC(C)C(C(=O)OC(C#N)c1cccc(Oc2ccccc2)c1)c1ccc(Cl)cc1 (centres unmarked) [Inhibitor 82] | 80.4 ± 13.0 % of control | 61.5 ± 54.0 % of control
